Experimental data from patent publication US4675403A, “3-Aminoalkyl derivatives of 5,5-disubstituted hydantoins with psychotropic activity” (American Home Products Corporation, priority 1985, dated 1987).
Counter-ions that a name gives are not always drawn. Like-named read-outs stand apart in the source and are kept apart here.

Legend:
[1] = molecular target: limbic D-2 dopamine receptor (Rattus norvegicus, UniProt P61169); assay: inhibition of limbic D-2 dopamine receptor binding (3H-spiroperidol); parameters: species or system rats; conditions: for inhibition at 10 µM: read-out: Limbic D-2 Binding, inhibition at 10 μM
limbic D-2 dopamine receptor, sequence (P61169 whole entry): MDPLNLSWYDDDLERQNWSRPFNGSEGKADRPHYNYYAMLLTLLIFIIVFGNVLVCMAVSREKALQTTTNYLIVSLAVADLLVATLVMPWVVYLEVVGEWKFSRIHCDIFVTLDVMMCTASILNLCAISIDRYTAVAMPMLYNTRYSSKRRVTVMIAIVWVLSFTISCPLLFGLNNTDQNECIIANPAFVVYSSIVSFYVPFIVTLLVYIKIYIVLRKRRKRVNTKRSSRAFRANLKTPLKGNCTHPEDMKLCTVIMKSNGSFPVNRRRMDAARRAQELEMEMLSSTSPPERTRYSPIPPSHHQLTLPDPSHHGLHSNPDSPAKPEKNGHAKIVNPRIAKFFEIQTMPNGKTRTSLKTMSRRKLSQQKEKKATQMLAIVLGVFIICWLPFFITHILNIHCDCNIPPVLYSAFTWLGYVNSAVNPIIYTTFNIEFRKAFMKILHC
Method: The test is carried out as follows:

[2] = tested on: conditioned avoidance (shelf-jump response); assay: conditioned avoidance (shelf-jump response) test; conditions: Rattus norvegicus, ip, read-out: AB50
Method: This test is carried out as follows:
Male CD rats (Charles River) maintained at approximately 400-450 gm body weight are used. […] A moveable wall, controlled by a motor, determines whether the rat has access to the shelf at any time during the experiment. The experimental chamber also contains a house light and sonalert. A steel grid floor in the main chamber is wired for presentation of electric shock. Each trial consists of a fifteen-second warning tone (conditioned stimulus), continuing for an additional fifteen seconds accompanied by electric shock, (unconditioned stimulus). A response (jumping onto the exposed shelf of the upper chamber) occurring during the initial fifteen-second warning tone is considered an avoidance response, while a response occurring during shock delivery is considered an escape response. […]
The following experimental parameters are recorded by computer: (1) the number of avoidance responses, (2) the number of escape responses, and (3) the number of trials in which no response occurred.
Response counts are summed over all subjects at a given dose. […] This number is expressed as a percentage of the total trials. Control performance is arbitrarily assigned a value of 100% for avoidance and the dose calculated to produce a 50% block in avoidance responding (AB50) is obtained from a dose-effect regression line fitted by the method of least squares.

[3] = rat limbic tissue, 0.3 nM 3H-spiroperidol

| Structure (SMILES) | inhibition at 1 µM [1, 3] | ED50 [2] | inhibition at 10 µM [1] | further results |
| --- | --- | --- | --- | --- |
| O=C1NC2(CC3CCC2C3)C(=O)N1CCCCN1CCN(c2ncccn2)CC1 (centres unmarked) [Example 2, 1-[4-[4-(2-Pyrimidinyl)-1-piperazinyl]butyl]spiro[bicyclo[2.2.1]heptane-2,4'-imidazolidine]-2',5'-dione, dihydrochloride] |  | 33.3 mg/kg |  | Ki ([1]; rat limbic tissue, 0.3 nM 3H-spiroperidol, Table 1): 2000 nM |
| O=C1NC2(CCCC2)C(=O)N1CCCCN1CCC(O)(c2ccc(Cl)cc2)CC1 [Example 8, dihydrochloride] |  |  | 40% |  |
| O=C1NC2(CCCC2)C(=O)N1CCCCN1CCN(c2ncccn2)CC1 [Example 7, 5,5-Tetramethylene-3-[4-[4-(2-pyrimidinyl)-4-piperazinyl]butyl]-2,4-imidazolidinedione, dihydrochloride] |  |  |  | inhibition at 10 µM ([1]; 10 μM, rat limbic tissue, 0.3 nM 3H-spiroperidol): 51% |
| Cl.Cl.O=C1CNC(=O)N1CCCCN1CCN(c2ncccn2)CC1 [Example 3, 3-[4-[4-(2-Pyrimidinyl)-1-piperazinyl]butyl]-2,4-imidazolidinedione, dihydrochloride] |  | 45.8 mg/kg | 24% |  |

Further lines, with some results ahead:

| inhibition at 1 µM [1, 3] | Structure (SMILES) | ED50 [2] | inhibition at 10 µM [1] | further results |
| --- | --- | --- | --- | --- |
| 10% | O=C1NC2(CCCCC2)C(=O)N1CCCCN1CCN(c2ncccn2)CC1 [Example 4, 5,5-Pentamethylene-3-[4-[4-(2-pyrimidinyl)-4-piperazinyl]butyl]-2,4-imidazolidinedione, dihydrochloride] |  |  |  |
| 5% | CC1(C)NC(=O)N(CCCCN2CCN(c3ncccn3)CC2)C1=O [Example 5, 5,5-Dimethyl-3-[4-[4-(2-pyrimidinyl)-4-piperazinyl]butyl]-2,4-imidazolidinedione, hydrochloride] |  |  |  |
